Several values for one entry are separate records, joined by “and”; a condition that tells them apart may be missing. Equal entries are not always repeated.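 48-hour exposure; five concentrations; linearly interpolated endpoints. GI50 marks 50% less growth. TGI is the concentration that stops growth completely.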

The assay deals with MDA-MB-468 breast. The assay is described as follows: NCI tumour cell line growth inhibition, 48 h.

`Cc1nc2sc(C(=O)Nc3cccc(Cl)c3C)c(N)c2cc1C(=O)c1ccccc1`: the GI50 was 0.126 µM and the TGI was determined as 0.889 µM.

Turning to `c1ccc(C2=NN[C@H](c3cn(-c4ccccc4)nc3-c3ccccc3)C2)cc1`, the GI50 was 4.18 µM and the TGI is over 100 µM.

For the molecule `COc1cc(/C=N/Nc2ncnc3c2cnn3Cc2ccccc2)ccc1O`, the GI50 was 7.88 µM and the TGI was over 25 µM.

As to `Cc1[nH]c2ccccc2c1C1=CC(=O)C=CC1=O`, the GI50 was 3.1 µM and the TGI was 11.2 µM.

For the molecule `CC#CC(=O)N[C@H]1CCCN(c2c(F)cc(C(N)=O)c3[nH]c(C)c(C)c23)C1`, the GI50 is 11.8 µM and the TGI is 27 µM.

In the case of `CS(=O)(=O)c1ccc(-c2[nH]c3ccc(F)cc3c2/C=N/NC(N)=S)cc1`, the GI50 was 2.67 µM and the TGI worked out at 13.4 µM.

With `COc1cc(C2C(C(=O)OCc3ccccc3)=C(C)NC(C)=C2C(=O)OCc2ccccc2)cc(OC)c1OC`, the GI50 is 2.43 µM and the TGI was over 100 µM.

In the case of `CC(=O)OC1CC(C)c2c(Cl)ncnc21` (configuration not stated), the GI50 is over 100 µM and the TGI is over 100 µM.

As for `CCCN(CCC)c1ccc(/C=N/NC(=O)c2cccnc2)cc1`, the GI50 was 16.4 µM and the TGI stood at 84.2 µM.

Consider `CCNC(=O)c1ccc2c(c1)nc(-c1ccc(Cl)cc1)n2-c1cc(C(C)(C)C)[nH]n1`, for which the GI50 was 2.26 µM and the TGI worked out at 8.3 µM.

In the case of `O=C(Nc1cccc(-n2cc(-c3ccncc3)c(-c3ccc(O)c(Cl)c3)n2)c1)c1ccc(N2CCOCC2)c(C(F)(F)F)c1`, the GI50 is 35.3 µM and the TGI was over 50 µM.

Take `O=C1C(Cl)=C(Nc2ccccn2)C(=O)c2ccccc21`: the GI50 is 1.99 µM and the TGI worked out at 4.39 µM.

As to `CCOC(=O)c1c(NC(=O)c2ccccc2C(F)(F)F)sc2c1CCC(=O)C2`, the GI50 was 2.35 µM and the TGI came out at 7.52 µM.

Take `CCCCC/C=C\C/C=C/CCCCCCCCNC(=O)Nc1ccc([N+](=O)[O-])cc1`: the GI50 was 7.63 µM and the TGI stood at 73 µM.

Turning to `CN1CCN(CCCN2c3ccccc3Sc3ccc(C(F)(F)F)cc32)CC1`, the GI50 is 1.52 µM and the TGI came out at 3.19 µM.

Turning to `O=C(Nc1ccc(Cl)cc1F)c1cc(Cl)ccc1O`, the GI50 is 0.429 µM and the TGI worked out at 3.96 µM.

`CC(=O)Nc1ccc(S(=O)(=O)c2ccc(NC(C)=O)cc2)cc1`: the GI50 is 64.8 µM and the TGI was over 100 µM.

For the molecule `COc1cc(C(=O)Nc2cc(O)c(C/C=C(\C)CCC=C(C)C)c(O)c2)cc2c1O[C@]1(C)CC[C@@H](O)C(C)(C)[C@H]1C2`, the GI50 was 0.816 µM and 0.212 µM; the TGI turned out to be 4.95 µM.

For the molecule `N=C(N)c1ccc(-c2ccc(-c3ccc(Cl)c(Cl)c3)o2)nc1`, the GI50 is 1.82 µM and the TGI turned out to be 3.56 µM.

Consider `Nc1ncnc2c1c(C(=O)NO)cn2C1OC(CO)C(O)C1O` (configuration not stated), for which the GI50 is 0.115 µM and the TGI was found to be 0.908 µM.

Regarding `N#C/C(=C\c1ccc([N+](=O)[O-])s1)c1nc2cc(Br)ccc2s1`, the GI50 is 1.89 µM and the TGI came out at 5.42 µM.

On to `CCc1cccc(CC)c1NC(=O)c1ccn2c1CCc1cnc(Nc3ccc(N4CCN(C)CC4)cc3OC)nc1-2`, for which the GI50 was 2.1 µM and the TGI came out at 5.91 µM.

Regarding `O=C1CCCC(=O)C1C(=O)c1ccc(C(F)(F)F)cc1[N+](=O)[O-]`, the GI50 is over 100 µM and the TGI is over 100 µM.

Take `CNC(=O)c1c(NC(=O)c2ccc(C(C)C)cc2)sc2c1CCC(=O)C2`: the GI50 was 0.45 µM and the TGI was 2.33 µM.

Take `CN1CCN(CCCOc2ccc3nc(Nc4ccc(C(F)(F)F)c(Cl)c4)ccc3c2)CC1`: the GI50 was 1.54 µM and the TGI came out at 3.16 µM.

As to `COc1cccc2cc(-c3nc(C4CCC(C(=O)O)CC4)n4ncnc(N)c34)[nH]c12` (configuration not stated), the GI50 is 0.185 µM and 0.257 µM; the TGI is 1.09 µM and 3 µM.

With `O=c1cc(-c2ccccc2)nc2cc(-c3ccco3)[nH]n12`, the GI50 was 2.89 µM and the TGI was 59.5 µM.

In the case of `Cc1cccc2c1NC(=O)C2(c1ccc(O)cc1)c1ccc(O)cc1`, the GI50 was under 0.0181 µM and the TGI worked out at 4.24 µM.

Consider `COc1ccc2c(c1)c(-c1nc(-c3cn(C)c4ncccc34)cs1)cn2CCCCN1CCOCC1`, for which the GI50 is 1.34 µM and the TGI was found to be 3.08 µM.

Regarding `CC(=O)OC[C@@]12Oc3c(cccc3-c3ccc(O)c4c3O[C@]3(COC(C)=O)C(=C4O)C(=O)C[C@H](C)[C@@H]3OC(C)=O)C(O)=C1C(=O)C[C@H](C)[C@@H]2OC(C)=O`, the GI50 was 15.1 µM and the TGI was determined as 48.7 µM.

Turning to `CC(C)NCCCCCNc1cc(O)cc2cccnc12`, the GI50 is 2.29 µM and the TGI amounted to 6.2 µM.

In the case of `OCCN1CCN(c2nc(Nc3ccc(-c4nc5ccccc5[nH]4)cc3)c3cn[nH]c3n2)CC1`, the GI50 was 1.69 µM and the TGI stood at 3.23 µM.

`O=C(Nc1ccc(O)c(NS(=O)(=O)c2ccc(F)cc2)c1)c1ccc(-c2ccccc2)cc1`: the GI50 was 2.48 µM and the TGI was found to be 10.8 µM.

Regarding `O=C1c2ccccc2CCC1(Br)Br`, the GI50 was 1.2 µM and the TGI amounted to 2.95 µM.

On to `COc1ccc(C(=O)c2cc(OC)c(OC)c(OC)c2)cc1/C=C/C(=O)c1ccc2c(c1)OCO2`, for which the GI50 is 1.44 µM and the TGI stood at 4.06 µM.

In the case of `Cc1csc(-c2ccc3c(c2)COC3(CCCN(C)C)c2ccc(F)cc2)c1` (configuration not stated), the GI50 was 1.7 µM and the TGI was 3.38 µM.

These data come from PubChem BioAssay (NCI).
